The source of these data is patent EP0509769B1, “Heterocyclic amides having HLE inhibiting activity” (ZENECA LIMITED, priority 1991, dated 1992).

Experiment [1] in a line: in vivo test (not specified further).
Experiment [2] addresses T1, human neutrophil elastase (HNE) (Homo sapiens, UniProt P08246).
T1 construct: host or cells: exogenous human enzyme instilled into the trachea of male Syrian hamsters
T1 sequence (P08246 30-267): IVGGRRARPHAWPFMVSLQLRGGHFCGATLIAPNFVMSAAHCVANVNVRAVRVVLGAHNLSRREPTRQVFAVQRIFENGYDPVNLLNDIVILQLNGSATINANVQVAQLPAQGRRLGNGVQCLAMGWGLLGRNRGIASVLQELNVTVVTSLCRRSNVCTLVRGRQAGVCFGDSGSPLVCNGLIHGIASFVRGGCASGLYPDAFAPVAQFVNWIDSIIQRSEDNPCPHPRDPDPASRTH
Nature of the experiment: Acute Hemorrhagic Assay: lung hemorrhage in hamsters after intratracheal HNE. The following applies: dose of 5 mg/kg by mouth, 30 min prior to administration of HNE; male Syrian hamsters. The experiment is classed as in vivo, hamster.
Description: This assay relies on monitoring only the amount of hemorrhage in the lung following intratracheal administration of human neutrophil elastase (HNE). Hemorrhage is quantified by disrupting erythrocytes recovered in lung lavage fluid and comparing that to dilutions of whole hamster blood. […] Four hours after enzyme administration, the animals are killed with an overdose of pentobarbital sodium, the thorax opened and the lungs and trachea removed. The excised lungs are lavaged with three changes of 2 mL normal saline via a tracheal cannula. The recovered lavages are pooled, the volumes (about 5 mL) are recorded and the lavages stored at 4 °C until assayed. For calculation of the amount of blood in each sample, the thawed lavages and a sample of whole hamster blood are sonicated to disrupt erythrocytes and appropriately diluted into individual wells of a 96-well microtiter plate. The optical densities (OD) of the disrupted lavages and blood samples are determined at 405 nm. The (µL blood equivalents) / (mL lavage) are determined by comparing the OD of the test samples with the OD of the standard curve prepared from whole hamster blood. The total µL equivalents of blood recovered is determined by multiplying recovered lavage volume by the (µL blood equivalents) / (mL lavage) for each sample.

As for `CC(C)C(NC(=O)Cn1c(-c2ccccc2)ccc(N)c1=O)C(=O)C(F)(F)F` (stereo not drawn) [Example 49, 2-(3-Amino-2-oxo-6-phenyl-1,2-dihydro-1-pyridyl)-N-(3,3,3-trifluoro1-isopropyl-2-oxopropyl)acetamide], the “activity in an in vivo test” value in experiment [1] is “activity”.
Regarding `CC(C)C(NC(=O)Cn1c(-c2ccccc2)ccc(NC(=O)Cc2ccc(N)cc2)c1=O)C(=O)C(F)(F)F.Cl` (stereo not drawn) [Example 159, 2-[3-(4-Aminophenylacetylamino)-2-oxo-6-phenyl-1,2-dihydro-1-pyridyl]-N-(3,3,3-trifluoro-1-isopropyl-2-oxopropyl)acetamide hydrochloride], the “activity in an in vivo test” value in experiment [1] is given as “activity”.
Regarding `CC(C)C(NC(=O)Cn1c(-c2ccccc2)ccc(NC(=O)C(F)(F)F)c1=O)C(=O)C(F)(F)F` (stereo not drawn) [Example 167, 2-(3-trifluoroacetylamino-2-oxo-6-phenyl-1,2-dihydro-1-pyridyl)-N-(3,3,3-trifluoro-1-isopropyl-2-oxopropyl)acetamide], in experiment [2], the inhibition of hemorrhage entry was “statistically significant inhibition of hemorrhage”.
